Source: ChEMBL document CHEMBL5036320, “Discovery of Icenticaftor (QBW251), a Cystic Fibrosis Transmembrane Conductance Regulator Potentiator with Clinical Efficacy in Cystic Fibrosis and Chronic Obstructive Pulmonary Disease” (J Med Chem, 2021)
Values after ≈ are worked out from the molar mass of the structure shown.

Columns and labels:
[1] = Unbound Cmax in Beagle dog at 3 mg/kg, po or 0.46 mg/kg, iv after 48 hrs by LC-MS/MS analysis; format: ADME, organism-based, Canis lupus familiaris; conditions: in vivo
[2] = Oral bioavailability in Beagle dog at 3 mg/kg after 48 hrs by LC-MS/MS analysis; format: ADME, organism-based, Canis lupus familiaris; conditions: in vivo
[3] = Cmax in Sprague-Dawley rat at 3 mg/kg, po and 1 mg/kg, iv measured upto 48 hrs by LC-MS/MS analysis; format: ADME, organism-based; set-up: dose 3 mg/kg, time <=48; conditions: in vivo
[4] = Oral bioavailability in Sprague-Dawley rat at 3 mg/kg measured upto 48 hrs by LC-MS/MS analysis; format: ADME, organism-based; conditions: in vivo
[5] = target: Cystic fibrosis transmembrane conductance regulator (Homo sapiens, UniProt P13569, G551D); assay: Potentiation of CFTR G551D mutant (unknown origin) expressed in FRT cells assessed as chloride transport by measuring membrane potential in presence of forskolin; format: cell-based
Chain of Cystic fibrosis transmembrane conductance regulator (Homo sapiens, UniProt P13569, G551D) (P13569 whole entry G551D): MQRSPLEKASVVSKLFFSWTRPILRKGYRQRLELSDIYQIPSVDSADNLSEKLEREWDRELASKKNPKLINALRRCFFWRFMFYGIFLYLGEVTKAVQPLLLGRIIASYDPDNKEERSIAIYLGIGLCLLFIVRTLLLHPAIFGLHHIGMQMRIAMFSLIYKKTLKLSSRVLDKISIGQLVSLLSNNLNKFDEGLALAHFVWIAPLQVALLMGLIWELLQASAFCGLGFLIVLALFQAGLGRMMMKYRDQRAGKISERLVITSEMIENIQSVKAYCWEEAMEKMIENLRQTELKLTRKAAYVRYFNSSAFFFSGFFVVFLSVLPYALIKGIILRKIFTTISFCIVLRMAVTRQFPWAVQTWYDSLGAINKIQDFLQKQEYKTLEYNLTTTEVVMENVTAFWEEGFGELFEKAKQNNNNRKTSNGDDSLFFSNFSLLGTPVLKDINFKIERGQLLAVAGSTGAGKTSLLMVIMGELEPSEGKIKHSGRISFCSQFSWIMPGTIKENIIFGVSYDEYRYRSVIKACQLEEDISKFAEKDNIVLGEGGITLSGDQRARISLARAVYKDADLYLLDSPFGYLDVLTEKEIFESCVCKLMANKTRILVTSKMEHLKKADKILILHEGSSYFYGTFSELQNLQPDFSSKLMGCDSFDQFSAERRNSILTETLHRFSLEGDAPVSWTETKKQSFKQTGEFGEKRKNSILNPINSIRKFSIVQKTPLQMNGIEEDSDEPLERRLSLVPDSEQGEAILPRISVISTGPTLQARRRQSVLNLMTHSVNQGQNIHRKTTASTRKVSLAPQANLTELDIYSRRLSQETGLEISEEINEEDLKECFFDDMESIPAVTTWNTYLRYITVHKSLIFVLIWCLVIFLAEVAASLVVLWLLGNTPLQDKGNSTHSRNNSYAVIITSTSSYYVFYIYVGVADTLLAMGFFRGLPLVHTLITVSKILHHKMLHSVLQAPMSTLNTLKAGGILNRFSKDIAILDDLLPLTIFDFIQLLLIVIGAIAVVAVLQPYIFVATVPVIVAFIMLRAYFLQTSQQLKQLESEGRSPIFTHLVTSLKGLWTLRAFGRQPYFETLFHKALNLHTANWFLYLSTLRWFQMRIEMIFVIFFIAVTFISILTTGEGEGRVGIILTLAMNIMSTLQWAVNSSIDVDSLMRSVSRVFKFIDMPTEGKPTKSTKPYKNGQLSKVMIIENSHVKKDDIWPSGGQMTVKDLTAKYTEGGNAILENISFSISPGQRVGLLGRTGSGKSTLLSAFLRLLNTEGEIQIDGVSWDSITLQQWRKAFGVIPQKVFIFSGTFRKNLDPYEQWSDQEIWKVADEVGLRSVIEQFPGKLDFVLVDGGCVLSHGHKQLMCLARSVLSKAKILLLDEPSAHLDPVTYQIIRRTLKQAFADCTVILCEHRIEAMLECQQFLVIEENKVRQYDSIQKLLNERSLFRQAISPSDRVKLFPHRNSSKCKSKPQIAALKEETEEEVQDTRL

[6] = Unbound Cmax in cynomolgus monkey plasma measured at 10 mg/kg, po or 0.1 mg/kg, iv after 48 hrs by LC-MS/MS analysis; format: ADME, organism-based, Macaca fascicularis; conditions: in vivo
[7] = Toxicity in human assessed as tolerability upto […], po bid; format: organism-based; conditions: in vivo
[8] = Clearance in cynomolgus monkey plasma at 10 mg/kg, po or 0.1 mg/kg, iv after 48 hrs by LC-MS/MS analysis; format: ADME, organism-based, Macaca fascicularis
[9] = Volume of distribution at steady state in Beagle dog at 3 mg/kg, po or 0.46 mg/kg, iv after 48 hrs by LC-MS/MS analysis; format: ADME, organism-based, Canis lupus familiaris; conditions: in vivo, read-out: Vdss
[10] = Clearance in Beagle dog blood at 3 mg/kg, po or 0.46 mg/kg, iv after 48 hrs by LC-MS/MS analysis; format: ADME, organism-based, Canis lupus familiaris
[11] = Volume of distribution in Sprague-Dawley rat at 3 mg/kg, po and 1 mg/kg, iv measured upto 48 hrs by LC-MS/MS analysis; format: ADME, organism-based; conditions: in vivo
[12] = Oral bioavailability in cynomolgus monkey at 10 mg/kg after 48 hrs by LC-MS/MS analysis; format: ADME, organism-based, Macaca fascicularis; conditions: in vivo
[13] = Toxicity in Wistar Han rat assessed as tolerability at 100 mg/kg, po after 2 days; format: organism-based; conditions: in vivo, 48 h, time 2 day
[14] = Clearance in cynomolgus monkey blood at 10 mg/kg, po or 0.1 mg/kg, iv after 48 hrs by LC-MS/MS analysis; format: ADME, organism-based, Macaca fascicularis
[15] = target: T1, Cystic fibrosis transmembrane conductance regulator (Homo sapiens, UniProt P13569, F508DEL); assay: Potentiation of CFTR F508 deletion mutant (unknown origin) expressed in HBE cells assessed as change in short circuit current in presence of forskolin and amiloride; format: cell-based
T1 sequence (P13569 as listed by the source): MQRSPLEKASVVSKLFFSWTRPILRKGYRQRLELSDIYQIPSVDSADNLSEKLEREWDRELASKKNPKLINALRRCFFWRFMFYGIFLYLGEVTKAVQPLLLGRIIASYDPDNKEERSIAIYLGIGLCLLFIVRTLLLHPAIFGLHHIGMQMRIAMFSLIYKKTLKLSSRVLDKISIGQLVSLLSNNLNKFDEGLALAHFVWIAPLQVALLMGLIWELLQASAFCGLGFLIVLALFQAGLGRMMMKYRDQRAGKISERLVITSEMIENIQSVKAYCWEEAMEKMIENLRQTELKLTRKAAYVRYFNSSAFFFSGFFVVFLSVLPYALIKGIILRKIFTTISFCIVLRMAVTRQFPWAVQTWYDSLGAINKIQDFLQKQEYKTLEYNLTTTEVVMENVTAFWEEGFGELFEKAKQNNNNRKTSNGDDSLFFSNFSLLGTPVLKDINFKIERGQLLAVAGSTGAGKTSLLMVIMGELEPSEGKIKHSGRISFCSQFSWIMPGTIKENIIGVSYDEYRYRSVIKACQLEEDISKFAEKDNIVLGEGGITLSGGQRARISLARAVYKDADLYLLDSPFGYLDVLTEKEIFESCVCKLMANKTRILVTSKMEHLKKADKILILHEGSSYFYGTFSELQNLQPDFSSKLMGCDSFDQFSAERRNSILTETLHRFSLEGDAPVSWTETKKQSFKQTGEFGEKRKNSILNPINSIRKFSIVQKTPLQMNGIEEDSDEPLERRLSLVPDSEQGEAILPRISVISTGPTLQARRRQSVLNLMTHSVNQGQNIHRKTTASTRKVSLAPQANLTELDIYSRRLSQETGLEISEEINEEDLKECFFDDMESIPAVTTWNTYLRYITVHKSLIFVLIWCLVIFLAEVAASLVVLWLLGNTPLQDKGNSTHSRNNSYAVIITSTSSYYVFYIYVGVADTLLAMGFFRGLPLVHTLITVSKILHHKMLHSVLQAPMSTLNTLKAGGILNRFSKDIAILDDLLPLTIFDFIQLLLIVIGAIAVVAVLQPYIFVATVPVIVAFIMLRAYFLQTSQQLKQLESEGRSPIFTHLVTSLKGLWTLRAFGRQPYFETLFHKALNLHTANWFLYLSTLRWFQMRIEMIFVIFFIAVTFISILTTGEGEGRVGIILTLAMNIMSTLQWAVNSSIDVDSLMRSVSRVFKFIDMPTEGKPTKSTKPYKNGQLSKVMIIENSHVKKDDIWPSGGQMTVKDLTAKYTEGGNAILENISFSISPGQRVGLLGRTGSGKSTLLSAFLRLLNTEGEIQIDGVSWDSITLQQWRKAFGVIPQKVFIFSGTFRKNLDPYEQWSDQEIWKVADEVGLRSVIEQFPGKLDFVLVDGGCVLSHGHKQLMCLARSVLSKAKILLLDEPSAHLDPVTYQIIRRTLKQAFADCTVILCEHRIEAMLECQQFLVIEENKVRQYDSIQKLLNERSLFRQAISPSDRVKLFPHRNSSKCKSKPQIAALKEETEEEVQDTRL

[16] = Solubility of the compound at pH 6.8; format: physicochemical; conditions: buffer
[17] = target: T1, Cystic fibrosis transmembrane conductance regulator; assay: Potentiation of CFTR F508del mutant (unknown origin) expressed in CHO cells assessed as chloride transport by measuring membrane potential incubated for 5 to 30 mins in presence of forskolin by Quattro assay; format: cell-based
[18] = system: Cystic fibrosis transmembrane conductance regulator (Homo sapiens), P13569 [F508del]; assay: Potentiation of CFTR F508del mutant (unknown origin) expressed in CHO cells assessed as chloride transport by measuring membrane potential incubated for 5 to 30 mins in presence of forskolin by Quattro assay relative to PG-01; format: cell-based; set-up: concentration or dose not given beside the values; conditions: filed as activator, time 5-30 min
Chain of Cystic fibrosis transmembrane conductance regulator (Homo sapiens), P13569 [F508del] (P13569 as listed by the source): as above

[19] = Cmax in cynomolgus monkey at 10 mg/kg, po or 0.1 mg/kg, iv after 48 hrs by LC-MS/MS analysis; format: ADME, organism-based, Macaca fascicularis; set-up: time 48 hrs, dose 10 mg/kg; conditions: in vivo
[20] = target: T2, Cystic fibrosis transmembrane conductance regulator (Homo sapiens, UniProt P13569); assay: Potentiation of wild-type CFTR (unknown origin) expressed in FRT cells assessed as chloride transport by measuring membrane potential in presence of forskolin; format: cell-based
Target sequence in this assay (P13569 whole entry): as the sequence (P13569 whole entry G551D) above, with D551G counted along it

[21] = Clearance in Beagle dog plasma at 3 mg/kg, po or 0.46 mg/kg, iv after 48 hrs by LC-MS/MS analysis; format: ADME, organism-based, Canis lupus familiaris
[22] = system: Cystic fibrosis transmembrane conductance regulator (Homo sapiens), P13569 [F508del]; assay: Potentiation of CFTR F508del mutant (unknown origin) expressed in FRT cells assessed as chloride transport by measuring membrane potential in presence of forskolin relative to PG-01; format: cell-based; conditions: filed as activator
[23] = Mean residence time in Sprague-Dawley rat at 3 mg/kg, po and 1 mg/kg, iv measured upto 48 hrs by LC-MS/MS analysis; format: ADME, organism-based; conditions: in vivo
[24] = Plasma Protein binding in Sprague-Dawley rat at 5 uM incubated for 4 hrs by rapid equilibrium dialysis; format: ADME, cell-free; conditions: read-out: PPB (converted)
[25] = Volume of distribution at steady state in cynomolgus monkey at 10 mg/kg, po or 0.1 mg/kg, iv after 48 hrs by LC-MS/MS analysis; format: ADME, organism-based, Macaca fascicularis; conditions: in vivo, read-out: Vdss
[26] = Unbound Cmax in Sprague-Dawley rat at 3 mg/kg, po and 1 mg/kg, iv measured upto 48 hrs by LC-MS/MS analysis; format: ADME, organism-based; conditions: in vivo
[27] = system: Cystic fibrosis transmembrane conductance regulator (Homo sapiens), P13569 [G551D]; assay: Potentiation of CFTR G551D mutant (unknown origin) expressed in FRT cells assessed as chloride transport by measuring membrane potential in presence of forskolin relative to PG-01; format: cell-based; conditions: filed as activator
Chain of Cystic fibrosis transmembrane conductance regulator (Homo sapiens), P13569 [G551D] (P13569 whole entry G551D): as the sequence (P13569 whole entry G551D) above

[28] = Mean residence time in cynomolgus monkey at 10 mg/kg, po or 0.1 mg/kg, iv after 48 hrs by LC-MS/MS analysis; format: ADME, organism-based, Macaca fascicularis; conditions: in vivo
[29] = Cmax in Beagle dog at 3 mg/kg, po or 0.46 mg/kg, iv after 48 hrs by LC-MS/MS analysis; format: ADME, organism-based, Canis lupus familiaris; set-up: time 48 hrs, dose 3 mg/kg; conditions: in vivo
[30] = target: T2, Cystic fibrosis transmembrane conductance regulator; assay: Potentiation of wild type CFTR (unknown origin) expressed in HBE cells assessed as change in short circuit current in presence of forskolin and amiloride relative to PG-01; format: cell-based; conditions: filed as activator
Target sequence in this assay (P13569 whole entry, looked up): as the sequence (P13569 whole entry G551D) above, with D551G counted along it

[31] = Mean residence time in Beagle dog at 3 mg/kg, po or 0.46 mg/kg, iv after 48 hrs by LC-MS/MS analysis; format: ADME, organism-based, Canis lupus familiaris; conditions: in vivo
[32] = Toxicity in Wistar Han rat assessed as NOAEL; conditions: in vivo, dose 10 mg/kg
[33] = target: T2, Cystic fibrosis transmembrane conductance regulator; assay: Potentiation of wild-type CFTR (unknown origin) expressed in FRT cells assessed as chloride transport by measuring membrane potential in presence of forskolin relative to PG-01; format: cell-based; conditions: filed as activator
Target sequence in this assay (P13569 whole entry, looked up): as the sequence (P13569 whole entry G551D) above, with D551G counted along it

[34] = system: Cystic fibrosis transmembrane conductance regulator (Homo sapiens), P13569 [F508del]; assay: Potentiation of CFTR F508 deletion mutant (unknown origin) expressed in HBE cells assessed as change in short circuit current in presence of forskolin and amiloride relative to PG-01; format: cell-based; conditions: filed as activator
[35] = Clearance in Sprague-Dawley rat at 3 mg/kg, po and 1 mg/kg, iv measured upto 48 hrs by LC MS/MS analysis; format: ADME, organism-based; conditions: in vivo
[36] = target: T1, Cystic fibrosis transmembrane conductance regulator; assay: Potentiation of CFTR F508del mutant (unknown origin) expressed in FRT cells assessed as chloride transport by measuring membrane potential in presence of forskolin; format: cell-based
[37] = target: T2, Cystic fibrosis transmembrane conductance regulator; assay: Potentiation of wild type CFTR (unknown origin) expressed in HBE cells assessed as change in short circuit current in presence of forskolin and amiloride; format: cell-based
Target sequence in this assay (P13569 whole entry): as the sequence (P13569 whole entry G551D) above, with D551G counted along it

[38] = Volume of distribution at steady state in Sprague-Dawley rat at 3 mg/kg, po and 0.5 mg/kg, iv measured upto 48 hrs by LC-MS/MS analysis; format: ADME, organism-based; conditions: in vivo, read-out: Vdss
[39] = Cmax in Sprague-Dawley rat at 3 mg/kg, po and 0.5 mg/kg, iv measured upto 48 hrs by LC-MS/MS analysis; format: ADME, organism-based; set-up: dose 3 mg/kg, time <=48; conditions: in vivo
[40] = Clearance in Sprague-Dawley rat at 3 mg/kg, po and 0.5 mg/kg, iv measured upto 48 hrs by LC-MS/MS analysis; format: ADME, organism-based; conditions: in vivo
[41] = Mean residence time in Sprague-Dawley rat at 3 mg/kg, po and 0.5 mg/kg, iv measured upto 48 hrs by LC-MS/MS analysis; format: ADME, organism-based; conditions: in vivo

With `COc1nc(C(=O)NC[C@](C)(O)C(F)(F)F)c(N)cc1C(F)(F)F` [ICENTICAFTOR] as the compound, how does the fCmax [1] read?
The fCmax was 102 nM.

What about the bioavailability [2] of the same compound?
Its bioavailability is 146%.

And the Cmax [3]?
The Cmax was 1360 nM.

What about the bioavailability [4] of the same compound?
The bioavailability was 90%.

What about the EC50 [5] of the same compound?
The EC50 was 497 nM.

And the fCmax [6]?
The fCmax was 276 nM.

What about the Activity [7] of the same compound?
The Activity was “Non-Toxic”.

And the clearance [8]?
Its clearance is 18 mL/min/kg.

And the Vd [9]?
The Vd was 7.5 L/kg.

What about the clearance [10] of the same compound?
The clearance was 41 mL/min/kg.

What about the Vd [11] of the same compound?
The Vd was 3 L/kg.

What about the bioavailability [12] of the same compound?
Its bioavailability is 26%.

And the Activity [13]?
The Activity was “Non-Toxic”.

And the clearance [14]?
Its clearance is 20.2 mL/min/kg.

What about the EC50 [15] of the same compound?
The EC50 was 39 nM.

What about the solubility [16] of the same compound?
The solubility was 237 µg/mL (≈ 656 µM).

And the EC50 [17]?
The EC50 was 47 nM.

And the Activity [18]?
Its Activity is 96%.

And the Cmax [19]?
Its Cmax is 2300 nM.

And the EC50 [20]?
The EC50 was 113 nM.

What about the clearance [21] of the same compound?
Its clearance is 29 mL/min/kg.

What about the Activity [22] of the same compound?
Its Activity is 92%.

What about the MRT [23] of the same compound?
Its MRT is 10.2 h.

What about the fraction unbound at 4 h, 5 µM [24] of the same compound?
Its fraction unbound at 4 h, 5 µM is 0.097.

What about the Vd [25] of the same compound?
The Vd was 3.5 L/kg.

What about the fCmax [26] of the same compound?
Its fCmax is 132 nM.

And the Activity [27]?
The Activity was 40%.

And the MRT [28]?
The MRT was 3.3 h.

And the Cmax [29]?
The Cmax was 1950 nM.

And the Activity [30]?
Its Activity is 87%.

What about the MRT [31] of the same compound?
The MRT was 4.4 h.

What about the NOAEL [32] of the same compound?
Its NOAEL is 10 mg/kg.

And the Activity [33]?
Its Activity is 79%.

What about the Activity [34] of the same compound?
Its Activity is 84%.

What about the clearance [35] of the same compound?
The clearance was 5 mL/min/kg.

What about the EC50 [36] of the same compound?
Its EC50 is 79 nM.

What about the EC50 [37] of the same compound?
The EC50 was 72 nM.

For `Nc1cc(C(F)(F)F)c(Br)nc1C(=O)NC[C@@H](O)C(F)(F)F`, which bioavailability [4] is on record?
Its bioavailability is 32%.

And the Vd [38]?
Its Vd is 3.2 L/kg.

What about the Cmax [39] of the same compound?
The Cmax was 271 nM.

And the clearance [40]?
The clearance was 53 mL/min/kg.

What about the solubility [16] of the same compound?
The solubility was 177 µg/mL (≈ 447 µM).

And the MRT [41]?
Its MRT is 1 h.

And the EC50 [17]?
Its EC50 is 9 nM.

And the Activity [18]?
The Activity was 100%.
